In PMC4730278, “In Vivo Anti-Tumor Activity and Toxicological Evaluations of Perillaldehyde 8,9-Epoxide, a Derivative of Perillyl Alcohol” (International Journal of Molecular Sciences, 2016):

Key:
[1] = test system: sarcoma 180 tumor cells (S-180); assay: In vivo antitumor activity assay, sarcoma 180 tumor growth in mice; parameters: species or system Swiss mice; conditions: 7 consecutive days
Description: Sarcoma 180 (S-180) tumor cells, were obtained through at the Federal University of Ceará, Brazil and maintained in the abdominal cavities of Swiss mice in their ascitic form by ten days.
The effect on tumor growth in vivo was assessed using S-180 ascites tumor cells, according standard protocol. Ten-day-old S-180 ascites tumor cells (2 × 10^6 cells per 0.5 mL) were inoculated subcutaneously into the right axillary region of animals. After 24 h, the animals were separated into 5 groups (n = 10 mice/group) and subjected to intraperitoneal (i.p.) treatment for 7 consecutive days (once a day). Group 1 consisted of animals treated by intraperitoneal (i.p.) administration of negative control—5% Dimethyl sulfoxide (DMSO); Group 2 consisted of animals treated by i.p. administration of positive control—5-fluorouracil 25 mg/kg/day (5-FU; purity > 99%; Sigma Chemical Co., St. Louis, MO, USA); Group 3 consisted of animals treated by i.p. administration of perillaldehyde 8,9-epoxide at 100 mg/kg/day; Group 4 consisted of animals treated by i.p. administration of perillaldehyde 8,9-epoxide at 200 mg/kg/day; Group 5 consisted of animals treated by i.p. administration of perillyl alcohol at 100 mg/kg/day; Group 6 consisted of animals treated by i.p. administration of perillyl alcohol at 200 mg/kg/day. At 24 h from the last day of treatment, under 1.5% isoflurane inhalation anesthesia, the mice were euthanized, and the tumors were weighed. The inhibition ratio of tumor growth (%) was calculated by the following equation: (%) = [(NC − TG)/NC] × 100, where NC is the average tumor weight of the negative control group and TG is the average tumor weight of the treated group.

[2] = Body and organ weights, healthy mice; type: in vivo, Swiss mice; conditions: 7 days
Description: (§1) Body weights (n = 10 mice/group) were determined at the first and last days of treatment. Organ weight alterations (n = 10 mice/group), and hematological and biochemical analysis (n = 5 mice/group) were performed on the last day of experimentation. All systemic toxicological analyses were also performed with 4 healthy animal groups, without the inoculation of S-180, (n = 5 mice/group) treated with 5% DMSO (i.p.), 5-FU 25 mg/Kg/day (i.p.), perillaldehyde 8,9-epoxide 100 mg/kg/day (i.p.) and perillaldehyde 8,9-epoxide 200 mg/kg/day for consecutive 7 days.
(§2) Twenty four hours after the seventh treatment day, blood samples of the animals were collected (retro-orbital plexus) with anesthetized mice (1.5%, isoflurane). Immediately after blood collection the animals were euthanized, and their organs (liver, spleen and kidneys) were removed and weighed. The wet mass of each organ was expressed as grams per 100 grams of body mass and compared to the negative control group.

[3] = Body and organ weights, mice transplanted with S-180 tumor cells; type: in vivo, Swiss mice; conditions: 7 days
Description: as §1, §2

[4] = Biochemical parameters in blood, healthy mice; type: in vivo, Swiss mice; conditions: 7 days
Description: as §1, §2
(§3) For evaluation of the effect of perillaldehyde 8,9-epoxide on the biochemical parameters aspartate aminotransferase (AST) and alanine aminotransferase (ALT) enzymatic to investigate liver function alterations, creatinine and urea were measured as renal function parameters. For this test, blood samples of the animals were collected without anticoagulant, centrifuged for 10 min at 3500 rpm and 25 °C to obtain […].
(§4) The Clinical Chemistry® kits (Abbott Architect; C8000; Abbott Laboratories, Wiesbaden, Germany) were used for biochemical evaluation of serum samples.

[5] = Biochemical parameters in blood, mice with S-180 tumor cells; type: in vivo, Swiss mice; conditions: 7 days; for ALT / AST / Creatinine / Urea: mice with S-180 tumor cells
Description: as §1, §2, §3, §4

[6] = Hematological parameters in blood, healthy mice; type: in vivo, Swiss mice; conditions: 7 days
Description: as §1, §2
(§5) For hematological analyses, an aliquot of blood from each animal was placed in ethylene diamine tetracetic acid (EDTA). Hematological parameters, including the total as well as differential counts of leukocytes, including eosinophils, lymphocytes, neutrophils and monocytes determined by standard manual procedures using optical light microscopy.

[7] = Hematological parameters in blood, mice with S-180 tumor; type: in vivo, Swiss mice; conditions: 7 days; for Differential Count of Leukocytes, Eosinophil / Differential Count of Leukocytes, Lymphocyte / Differential Count of Leukocytes, Monocyte / Differential Count of Leukocytes, Neutrophil / Total Leukocytes: mice with S-180 tumor
Description: as §1, §2, §5

[8] = Histopathological and macroscopic analyses of livers, kidneys and spleens; type: in vivo, Swiss mice; conditions: light microscopy, hematoxylin-eosin; after 7 days i.p. treatment
Description: After being weighed and fixed in 10% formaldehyde; tumors, livers, spleens, and kidneys were submitted for assessment macroscopic (size, coloration and hemorrhage), were cut into small pieces and, after that dehydrated in alcohol, diaphanized in xylene and paraffin-embedded. Subsequently, 5-µm-thick histological sections were obtained and stained with hematoxylin and eosin. Histological analyses were performed by light microscopy in order to assess possible damage caused by treatment.

[9] = test system: 4 cancer cell lines (colon carcinoma, ovarian adenocarcinoma, glioblastoma, and leukemia); parameters: method as in PMID 26197313; conditions: all of the 4 cell lines studied; cited from earlier work
[10] = test system: three human tumor cell lines (ovarian adenocarcinoma, colon carcinoma, glioblastoma); parameters: method as in PMID 26197313; conditions: in vitro; cited from earlier work
[11] = mice with tumor S-180, 100 mg/kg/day i.p.
[12] = mice with tumor S-180, 200 mg/kg/day i.p.

CC1([C@@H]2CC=C(C=O)CC2)CO1 (some centres unmarked) [perillaldehyde 8,9-epoxide]
tumor growth inhibition rate ([1]; 100 mg/kg/day i.p.): 38.4%
tumor growth inhibition rate ([1]; 200 mg/kg/day i.p.): 58.7%
Kidney ([2]; 100 mg/kg/day i.p.): 1.15 ± 0.06 g/100 g Body Mass
Liver ([2]; 100 mg/kg/day i.p.): 4.66 ± 0.09 g/100 g Body Mass
Spleen ([2]; 100 mg/kg/day i.p.): 0.25 ± 0.01 g/100 g Body Mass
Variation Body in Mass ([2]; 100 mg/kg/day i.p.): 0.90 ± 0.38 g
Kidney ([2]; 200 mg/kg/day i.p.): 1.17 ± 0.19 g/100 g Body Mass
Liver ([2]; 200 mg/kg/day i.p.): 5.07 ± 0.13 g/100 g Body Mass
Spleen ([2]; 200 mg/kg/day i.p.): 0.37 ± 0.06 g/100 g Body Mass
Variation Body in Mass ([2]; 200 mg/kg/day i.p.): -0.71 ± 0.53 g
changes in body or organ masses (in words) ([3]; healthy and S-180 mice, 100 and 200 mg/kg/day i.p.): did not cause changes in body or organ masses
Kidney [3, 11]: 1.27 ± 0.03 g/100 g Body Mass
Liver [3, 11]: 4.84 ± 0.07 g/100 g Body Mass
Spleen [3, 11]: 0.52 ± 0.02 g/100 g Body Mass
Variation Body in Mass [3, 11]: 1.11 ± 0.19 g
Kidney [3, 12]: 1.28 ± 0.03 g/100 g Body Mass
Liver [3, 12]: 4.57 ± 0.09 g/100 g Body Mass
Spleen [3, 12]: 0.49 ± 0.04 g/100 g Body Mass
Variation Body in Mass [3, 12]: -1.58 ± 0.33 g
ALT ([4]; 100 mg/kg/day i.p.): 55.25 ± 6.26 U/L
AST ([4]; 100 mg/kg/day i.p.): 100.5 ± 5.97 U/L
Creatinine ([4]; 100 mg/kg/day i.p.): 0.34 ± 0.01 mg/dL
Urea ([4]; 100 mg/kg/day i.p.): 54.25 ± 3.82 mg/dL
ALT ([4]; 200 mg/kg/day i.p.): 47.75 ± 4.64 U/L
AST ([4]; 200 mg/kg/day i.p.): 78.75 ± 3.17 U/L
Creatinine ([4]; 200 mg/kg/day i.p.): 0.34 ± 0.01 mg/dL
Urea ([4]; 200 mg/kg/day i.p.): 41.00 ± 4.42 mg/dL
changes in hepatic and renal parameters (AST, ALT, urea, creatinine; in words) ([5]; healthy and S-180 mice, at the doses tested (100 and 200 mg/kg/day i.p.)): does not cause changes in hepatic and renal parameters
ALT ([5]; 100 mg/kg/day i.p.): 35.0 ± 2.2 U/L
AST ([5]; 100 mg/kg/day i.p.): 178.0 ± 5.0 U/L
Creatinine ([5]; 100 mg/kg/day i.p.): 0.34 ± 0.01 mg/dL
Urea ([5]; 100 mg/kg/day i.p.): 43.0 ± 1.08 mg/dL
ALT ([5]; 200 mg/kg/day i.p.): 36.0 ± 3.5 U/L
AST ([5]; 200 mg/kg/day i.p.): 208.3 ± 20.6 U/L
Creatinine ([5]; 200 mg/kg/day i.p.): 0.33 ± 0.02 mg/dL
Urea ([5]; 200 mg/kg/day i.p.): 47.80 ± 2.01 mg/dL
Differential Count of Leukocytes, Eosinophil ([6]; 100 mg/kg/day i.p.): 0%
Differential Count of Leukocytes, Lymphocyte ([6]; 100 mg/kg/day i.p.): 86.0 ± 1.68 %
Differential Count of Leukocytes, Monocyte ([6]; 100 mg/kg/day i.p.): 1.5 ± 0.86%
Differential Count of Leukocytes, Neutrophil ([6]; 100 mg/kg/day i.p.): 12.5 ± 1.08 %
Total Leukocytes ([6]; 100 mg/kg/day i.p.): 3.12 ± 0.38 * 10^3 Cells/µL
Differential Count of Leukocytes, Eosinophil ([6]; 200 mg/kg/day i.p.): 0%
Differential Count of Leukocytes, Lymphocyte ([6]; 200 mg/kg/day i.p.): 89.5 ± 0.65 %
Differential Count of Leukocytes, Monocyte ([6]; 200 mg/kg/day i.p.): 1.3 ± 0.25%
Differential Count of Leukocytes, Neutrophil ([6]; 200 mg/kg/day i.p.): 9.2 ± 0.85 %
Total Leukocytes ([6]; 200 mg/kg/day i.p.): 2.62 ± 0.47 * 10^3 Cells/µL
effect on total leukocyte count (in words) ([7]; healthy mice and mice with S-180, at the doses tested (100 and 200 mg/kg/day i.p.)): caused leukopenia
Differential Count of Leukocytes, Eosinophil ([7]; 100 mg/kg/day i.p.): 0%
Differential Count of Leukocytes, Lymphocyte ([7]; 100 mg/kg/day i.p.): 73.2 ± 2.17 %
Differential Count of Leukocytes, Monocyte ([7]; 100 mg/kg/day i.p.): 0.6 ± 0.40%
Differential Count of Leukocytes, Neutrophil ([7]; 100 mg/kg/day i.p.): 26.2 ± 5.92 %
Total Leukocytes ([7]; 100 mg/kg/day i.p.): 5.30 ± 0.37 ^# 10^3 Cells/µL
Differential Count of Leukocytes, Eosinophil ([7]; 200 mg/kg/day i.p.): 0%
Differential Count of Leukocytes, Lymphocyte ([7]; 200 mg/kg/day i.p.): 80.6 ± 2.54 %
Differential Count of Leukocytes, Monocyte ([7]; 200 mg/kg/day i.p.): 0.8 ± 0.34%
Differential Count of Leukocytes, Neutrophil ([7]; 200 mg/kg/day i.p.): 18.6 ± 6.18 %
Total Leukocytes ([7]; 200 mg/kg/day i.p.): 6.50 ± 0.65 ^# 10^3 Cells/µL
Histopathological analyses of the liver, spleen, and kidneys (morphology) [8]: free from any morphological changes
IC50 (median inhibitory concentration able to induce 50% of maximal effect) [9]: less than 4.0 µg/mL
inhibition percentage (GI%) compared with perillyl alcohol [10]: higher inhibition percentage in all cell lines tested

C=C(C)[C@@H]1CC=C(CO)CC1 [perillyl alcohol, (S)-(−)-perillyl alcohol]
tumor growth inhibition rate ([1]; 100 mg/kg/day i.p.): 35.3%
tumor growth inhibition rate ([1]; 200 mg/kg/day i.p.): 45.4%
